This note sets out measurements from article PMC3904506 (International journal of biological macromolecules, 2013).

Each structure is given as a SMILES string. Counter-ions that a name gives are not always drawn. Like-named read-outs stand apart in the source and are kept apart here.

The target of assay [1] is T1, CDA variant Q27/A70 (Homo sapiens, UniProt P32320, K27Q). The assay can be described thus: Inhibition of deoxycytidine deamination, Q27/A70 variant.
For assay [2], the target named is T2, CDA variant K27/A70 (Homo sapiens, UniProt P32320). Description: Inhibition of deoxycytidine deamination, K27/A70 variant. The note with it: double-reciprocal plots, substrate deoxycytidine.
For assay [3], the target named is T3, CDA variant K27/T70 (Homo sapiens, UniProt P32320, A70T). Description: Inhibition of deoxycytidine deamination, K27/T70 variant.
T3 sequence (P32320 whole entry A70T): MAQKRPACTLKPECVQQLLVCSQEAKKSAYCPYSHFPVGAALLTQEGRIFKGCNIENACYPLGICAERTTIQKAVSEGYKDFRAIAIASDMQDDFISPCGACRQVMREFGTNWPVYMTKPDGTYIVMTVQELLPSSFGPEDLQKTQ
For assay [4], the target named is T2, CDA variant K27/A70. The assay can be described thus: CDA activity assay, substrate kinetics, K27/A70 variant.
The target of assay [5] is T1, CDA variant Q27/A70. Description: CDA activity assay, substrate kinetics, Q27/A70 variant. The note with it: 37 °C.
The target of assay [6] is T4, CDA mutant E24Q (Homo sapiens, UniProt P32320, E24Q). The assay can be described thus: CDA activity assay, substrate kinetics, E24Q mutant. The note with it: 37 °C.
T4 sequence (P32320 whole entry E24Q): as the sequence (P32320 whole entry A70T) above, with E24Q, T70A counted along it
Assay [7] addresses T3, CDA variant K27/T70. Description: CDA activity assay, substrate kinetics, K27/T70 variant. The note with it: 37 °C.
Assay [8] addresses T3, CDA variant K27/T70. The assay can be described thus: Oxidative resistance experiments, K27/T70 variant. The assay is classed as biochemical.
Assay [9] addresses T1, CDA variant Q27/A70. The assay can be described thus: Oxidative resistance experiments, Q27/A70 variant. It is filed as biochemical.
Assay [10] concerns the target T4, CDA mutant E24Q. The assay can be described thus: Oxidative resistance experiments, E24Q mutant. The assay is classed as biochemical.
Assay [11] has as its target T2, CDA variant K27/A70. Description: Oxidative resistance experiments, K27/A70 variant. The assay is classed as biochemical.
In assay [12] the target is T4, CDA mutant E24Q. Description: Inhibition of deoxycytidine deamination, E24Q mutant.
[13] abbreviates: Q27/A70, double-reciprocal plots, substrate deoxycytidine.
Where [14] appears, read: K27/T70, double-reciprocal plots, substrate deoxycytidine.
The mark [15] stands for this setting: 100 μM NaOCl, 60 min of incubation, 37 °C.
[16] abbreviates: read-out: K0.5 (concentration at 50% inhibition of activity), NaOCl.

T1 sequence (P32320 whole entry K27Q): as the sequence (P32320 whole entry A70T) above, with K27Q, T70A counted along it

With `O=C1NC(O)CCN1[C@H]1C[C@H](O)[C@@H](CO)O1` (stereo partly drawn) [Tetrahydro-2′-deoxyuridine], the Ki at CDA variant Q27/A70 [1] (setting [13]) was found to be 260 nM; at CDA variant K27/A70 [2] it was 0.04 µM; at CDA variant K27/T70 [3] (setting [14]), 260 nM.
For the compound `Nc1ccn([C@H]2C[C@H](O)[C@@H](CO)O2)c(=O)n1` [CdR, 2′-deoxycytidine], the “enthalpy of binding ΔH (van't Hoff plot)” value is 3.57 kcal/mol on CDA variant K27/A70 [4] (temperature range 10–35 °C) and -8.88 kcal/mol on CDA variant K27/A70 [4] (temperature range 35–80 °C).
For the compound `Nc1ncc([C@@H]2O[C@H](CO)[C@@H](O)[C@H]2O)c(=O)[nH]1` [Pseudoisocytidine-HCl], the figures for the Ki on CDA variant Q27/A70 [1] (setting [13]), on CDA variant K27/A70 [2] and at CDA variant K27/T70 [3] (setting [14]) were 46000 nM, 28 µM and 60000 nM, respectively.
Turning to `Nc1ncn([C@@H]2O[C@H](CO)[C@@H](O)[C@@H]2O)c(=O)n1` [Fazarabine, 1-β-D-arabinofuranosyl-5-azacytosine], the “increase in catalytic efficiency with respect to the Q27/A70 and K27/T70 variants” value at CDA variant K27/A70 [4] was 3 fold.
For `Nc1ccn([C@H]2CC[C@@H](CO)O2)c(=O)n1` [2′,3′-CdR, 2′,3′-dideoxycytidine], the Km result on CDA variant Q27/A70 [5], at CDA mutant E24Q [6], on CDA variant K27/T70 [7] and on CDA variant K27/A70 [4] (37 °C) was “not substrate” throughout.
With `OO` [H2O2, hydrogen peroxide], the IC50 is 11.5 mM at CDA variant K27/T70 [8] (read-out: K0.5, H2O2); 15 mM at CDA variant Q27/A70 [9] (read-out: K0.5, H2O2); 8 mM at CDA mutant E24Q [10] (read-out: K0.5, H2O2); 23.5 mM at CDA variant K27/A70 [11] (read-out: K0.5, H2O2).
Turning to `[Na+].[O-]Cl` [NaOCl, sodium hypochlorite], the residual activity at CDA variant K27/T70 [8] (setting [15]) stood at 27.5%; at CDA variant Q27/A70 [9] (setting [15]) it was 49%; at CDA mutant E24Q [10] (NaOCl (100 μM, Fig. 6A), 60 min of incubation), 97%; at CDA variant K27/A70 [11] (setting [15]), 32%. The values for the IC50 at CDA variant Q27/A70 [9] (setting [16]), at CDA mutant E24Q [10] (setting [16]) and at CDA variant K27/A70 [11] (setting [16]) were 0.1 mM, 1 mM and 0.06 mM, respectively.
For `Nc1ccn([C@@H]2O[C@H](CO)[C@@H](O)[C@H]2O)c(=O)c1` [3-Deaza-cytidine], the figures for the Ki at CDA variant Q27/A70 [1], at CDA mutant E24Q [12] and on CDA variant K27/T70 [3] were 1800 nM, 2900 nM and 2400 nM, respectively.

For orientation: Ki means a dissociation constant, usually derived from enzyme kinetics or from competition with a known ligand. What is called residual activity is the signal under treatment as a percentage of the control signal. Higher therefore signals much activity left.
